Measured values published in patent US10501413B2, “Inhibitors of the Notch transcriptional activation complex and methods for use of the same” (UNIVERSITY OF MIAMI, priority 2015, dated 2019).

Legend:
[1] = tested on: Notch target gene transcription; test: RT-qPCR of Notch target genes in cancer cell lines; type: cell-based, human
Method: (§1) The effect of inhibitor treatment on Notch-target gene transcription also was investigated (FIGS. 2C and 2D). […] As proof of specificity, transcription of the housekeeping gene, HPRT, was unaltered in treated cells. To test the effects of Notch inhibition on proliferation, a colony formation assay was performed.
(§2) To extend the analysis of tumor cell growth inhibition, several commonly used cancer cell lines were selected to test for sensitivity to Inhibitor No. 1-134-83 (FIGS. 3A and 3B). […] In this analysis, sensitivity to DAPT is taken to indicate specific inhibition of Notch activity. […] Cells that are refractory to DAPT were equally resistant to Inhibitor No. 1-134-83.
RT-PCR analysis was performed using TaqMan probes according to manufacturer's instructions. In particular, 80 ng of RNA equivalent was used per reaction. Gene expression was normalized to the TATA-binding protein (“TBP”) gene. As a control, hypoxanthine phosphoribosyltransferase 1 (“HPRT”) gene expression was also monitored.

[2] = tested on: esophageal adenocarcinoma PDX tumors; test: Esophageal adenocarcinoma patient-derived xenograft (PDX); type: in vivo, mouse; conditions: NSG mice, two PDX models, daily IP, 1-134-83 15 mg/kg, DAPT 20 mg/kg
Method: The effect of the inhibitors of the disclosure on the growth of an established tumor also was investigated using two independent esophageal adenocarcinoma patient-derived xenograft (“PDX”) models. Tumors were established in NSG mice to the size of 250 mm^3 prior to the initiation of treatment. Mice were dosed daily via intraperitoneal (“IP”) injection with either Inhibitor No. 1-134-83 (15 mg/kg) or DAPT (20 mg/kg), and compared to DMSO vehicle control. […] Following 24 days of treatment, tumors were harvested and Notch-target gene transcription was evaluated. […] (FIG. 4) Six-week-old NOD-SCID gamma (“NSG”) mice were purchased from Jackson Laboratories and CD-1 Nude mice were purchased from Charles River Laboratories. For the cell line based xenografts assay, 5×10^6 OE19 cells in 200 μl serum-free culture medium were injected subcutaneously per mouse. The mice in the treatment group were injected with 15 mg/kg of Inhibitor No. 1-134-83 daily, and the mice in the control group were injected with the same volume of vehicle (DMSO). Subcutaneous tumor growth was measured once every 4 days using calipers along with body weight. The experiment was discontinued on day 28. PDX cancer models were established, as described in Zhang et al, Establishment of Patient-Derived Xenograft (PDX) Models of Human Breast Cancer, Current Protocols in Mouse Biology, 3:21-29 (2013), in NSG mice. Briefly, 10 mm^3 pieces of primary EAC29 PDX tumor were transplanted subcutaneously into the flanks of NSG mice using a 13G telescopic needle. When the tumors reached 200 mm^3, the mice were split into two uniform groups for treatment. Compound 1-134-83 (15 mg/kg) and vehicle were administered daily by inraperitoneal (“IP”) injection for 24 days. Tumor growth was monitored every 4 days and tumor volume was measured by the formula: Volume=(S×S×L)/2, where S and L are the short and long dimensions. The xenograft tumors were harvested, weighed and samples were subjected to histological examination and by qPCR.

[3] = tested on: cancer cell lines (OE33, 786-0 and panel); test: Colony formation assay; type: cell-based, human; conditions: 7 days
Method: as §1, §2
Cells were plated into a 6 well plate at a density of 2000 cells/cm^2. Inhibitor treatment commenced 24 hours post seeding, and the media containing inhibitor was changed every 48 hours thereafter. After 168 hours, cells were fixed with ice cold methanol for 10 minutes, stained for 1 hour with crystal violet, de-stained with water, and allowed to dry.

[4] = tested on: MAML1 and Notch1 occupancy on HES1 promoter in OE33 and 786-0 cells; test: Chromatin immunoprecipitation (ChIP) on the HES1 locus; type: cell-based, human; conditions: 24 hours
Method: (§3) The effect of inhibitor treatment on the assembly of the NTC in cells was investigated.
Cells (8×10^6 OE33 cells or 10×10^6 786-0 cells) were plated onto a 15 cm tissue culture dish a day prior to treatment. Cells were then treated for 24 hours with (N—[N-(3,5-difluorophenacetyl)-L-alanyl]-S-phenylglycine t-butyl ester (“DAPT”, 5 μM), Inhibitor No. 1-134-83 (25 μM), or DMSO vehicle. Following treatment, cells were cross-linked for 10 minutes with 1% formaldehyde. The reaction was then stopped by adding […] glycine. Cells were collected in SDS lysis buffer (1% SDS, 10 mM EDTA, 50 mM Tris-HCl pH 8.0) and sonicated to yield chromatin fragments of approximately 300 to 800 bp (8 minutes at high level for OE33 cells; 5 minutes at medium level for 786-0 cells in BIORUPTOR UCD-200 sonicator). Lysates were divided into equal parts and immunoprecipitated with either α-Notch1 (A301-894A, Bethyl Laboratories) or α-MAML1 (12166s, Cell Signaling Technology) antibody. Protein:DNA immunoprecipitates were then reverse cross-linked at 65° C. in 200 mM NaCl for 4 hours, followed by incubation with RNase A and proteinase K. DNA was then purified using a PCR purification kit (28104,
Qiagen). Immunoprecipitated DNA was then detected by SYBR green qPCR using HES1 specific oligonucleotide primers (forward: 5′CGTGTCTCCTCCTCCCATT3′; reverse: 5′GGGGGATTCCGCTGTTAT3′).

[5] = tested on: NICD in OE33 and 786-0 cells; test: Western analysis of NICD levels; type: cell-based, human; conditions: OE33 and 786-0 cell lysates
Method: as §3
Protein analysis was carried out using conventional SDS-PAGE and transfer techniques. Blots were probed with the indicated antibody (“Ab”), using standard conditions, and detected using enhanced chemiluminescence (“ECL”). The following Ab were used: anti-Notch1 (ab52627, abcam), anti-Notch1^val1744 (4147S, Cell Signaling Technology) and anti-GAPDH (ab9483, Abcam).

CSL = CSL (Homo sapiens, UniProt Q06330); test: Surface plasmon resonance binding to CSL; conditions: SPR, equilibrium response fitted to 1:1 binding model
Method: (§4) The inhibitors described herein were subjected to surface plasmon resonance (“SPR”) to determine their binding constants to the NICD and CSL components of the NTC. In particular, the target protein (NICD1) was immobilized on the dextran surface of the SPR sensor chip. Through a microflow system, a solution with the inhibitor was injected over the immobilized protein layer. The inhibitor bound to the immobilized protein, which led to an increase in SPR signal, indicating association of the ligand to the target protein. After 45 seconds, buffer solution was injected on the microfluidics that dissociated the bound complex between the ligand and the inhibitor. As the inhibitor dissociated from the ligand, a decrease in SPR signal was observed. The equilibrium dissociation constant KD was determined by plotting the equilibrium response (Req) as a function of the concentration of the ligand, and fitting the data to a 1:1 binding model. The results are listed in […].

NICD1 = target: T1, NICD1 (Homo sapiens, UniProt P46531); test: Surface plasmon resonance binding to immobilized NICD; conditions: SPR, equilibrium response fitted to 1:1 binding model
T1 construct: the intracellular domain of Notch (“NICD”)
Method: as §4

[6] = target: T2, Notch transcriptional activation complex (CSL, Notch1, MAML1 on DNA) (Homo sapiens, UniProt P46531+Q06330); test: Notch complex assembly assay (ALPHASCREEN); type: biochemical
T2 construct: the intracellular domain of Notch (“NICD”); made in house; host or cells: SF21 insect cells (baculovirus)
Excerpt: An in vitro assay was developed to monitor the assembly of the Notch transcriptional complex (“NTC”) on DNA. The NTC, which includes the Notch, Mastermind (“MAML1”), and CSL proteins, binds to a specific DNA sequence in a CSL-dependent manner. For the assay, baculovirus produced CSL, Notch, and MAML1 were mixed together with a biotinylated DNA oligomer containing the CSL target sequence. Assembly of the NTC on DNA was then monitored with the proximity-based ALPHASCREEN (Perkin Elmer) using streptavidin and protein A beads (FIGS. 1A and 1B). A signal results when MAML1 is recruited to CSL bound DNA.
All recombinant proteins were expressed using baculovirus expression vectors in SF21 cells and purified. Unless otherwise stated, all assays contained 125 fmol of double stranded oligonucleotide, CSL, Notch1 and MAML1 proteins. Reactions were carried out in Tris-buffered saline with 0.1% Tween (“TBS-T”) buffer containing 0.2% bovine serum albumin (“BSA”) and 100 ug/mL salmon sperm DNA. Briefly, the Notch complex was assembled on a biotinylated double stranded (“DS”) oligonucleotide harboring one CSL binding site (5′-[…]-3′). Complex assembly was quantitated using ALPHASCREEN technology (Perkin Elmer). Proteins in the complexes were detected using specific antibodies to either MAML1 (Cell signaling, D3K7B), Notch1 (Abcam, 52627) or CSL (anti-His, Abcam 18184). Streptavidin conjugated acceptor beads (Perkin Elmer, 6760002) were used to bind the DS oligonucleotide, and Protein-A conjugated donor beads (Perkin Elmer, 6760137) were used to detect antibody-coated proteins. For screening compounds, Notch transcriptional activation complex (“NTC”) components were added to wells that already contained the inhibitor to be assayed and allowed to incubate for 30 minutes. The ALPHASCREEN plate (Perkin Elmer, 6008350) was then read on an Envision Plate reader (Perkin Elmer) as specified by the manufacturer.
Determination of Equilibrium Dissociation Constants (KD) and Half Maximal Inhibitory Concentrations (IC50)

Sequence of CSL (Q06330 whole entry): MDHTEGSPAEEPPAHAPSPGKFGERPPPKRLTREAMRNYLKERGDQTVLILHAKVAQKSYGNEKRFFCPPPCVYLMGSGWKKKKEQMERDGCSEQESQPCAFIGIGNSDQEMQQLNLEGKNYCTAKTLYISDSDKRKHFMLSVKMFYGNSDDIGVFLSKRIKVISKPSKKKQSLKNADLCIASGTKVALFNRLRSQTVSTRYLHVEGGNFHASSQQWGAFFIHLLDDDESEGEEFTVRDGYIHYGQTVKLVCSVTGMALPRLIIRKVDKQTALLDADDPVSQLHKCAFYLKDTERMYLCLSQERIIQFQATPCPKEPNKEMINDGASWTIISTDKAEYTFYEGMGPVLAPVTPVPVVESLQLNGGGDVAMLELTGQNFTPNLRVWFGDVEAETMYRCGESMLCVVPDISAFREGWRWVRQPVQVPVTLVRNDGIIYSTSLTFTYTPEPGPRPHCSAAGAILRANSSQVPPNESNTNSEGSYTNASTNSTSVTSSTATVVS
T2 sequence (P46531 1754-2555 limits assumed): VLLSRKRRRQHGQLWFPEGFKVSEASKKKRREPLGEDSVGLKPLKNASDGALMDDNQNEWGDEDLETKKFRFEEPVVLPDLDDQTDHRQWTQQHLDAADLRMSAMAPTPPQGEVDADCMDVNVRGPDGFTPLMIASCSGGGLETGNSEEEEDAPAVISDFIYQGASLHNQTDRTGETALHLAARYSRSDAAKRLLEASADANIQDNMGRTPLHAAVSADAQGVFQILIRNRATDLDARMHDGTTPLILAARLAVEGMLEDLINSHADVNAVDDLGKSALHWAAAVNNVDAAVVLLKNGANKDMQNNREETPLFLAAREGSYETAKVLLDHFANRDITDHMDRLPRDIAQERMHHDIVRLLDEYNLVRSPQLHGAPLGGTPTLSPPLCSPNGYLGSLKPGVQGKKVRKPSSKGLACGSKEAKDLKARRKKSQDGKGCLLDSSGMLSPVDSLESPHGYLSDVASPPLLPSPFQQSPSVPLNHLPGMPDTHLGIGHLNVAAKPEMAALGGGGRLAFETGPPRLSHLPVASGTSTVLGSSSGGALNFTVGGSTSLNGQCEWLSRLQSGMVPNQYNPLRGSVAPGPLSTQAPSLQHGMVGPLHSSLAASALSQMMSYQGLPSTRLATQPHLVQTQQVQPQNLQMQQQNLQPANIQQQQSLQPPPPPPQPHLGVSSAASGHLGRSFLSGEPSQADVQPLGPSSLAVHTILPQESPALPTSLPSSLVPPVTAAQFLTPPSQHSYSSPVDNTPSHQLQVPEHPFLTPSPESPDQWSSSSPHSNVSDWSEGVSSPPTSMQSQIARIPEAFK
T2 sequence (Q06330 whole entry, the tested form may be a part): as the sequence (Q06330 whole entry) above
T1 sequence (P46531 1754-2555 limits assumed): as the sequence (P46531 1754-2555 limits assumed) above

C[C@H](NC(=O)Cc1cc(F)cc(F)c1)C(=O)N[C@H](C(=O)OC(C)(C)C)c1ccccc1 [DAPT, N—[N-(3,5-difluorophenacetyl)-L-alanyl]-S-phenylglycine t-butyl ester, reference compound]
Notch target gene transcription ([1]; OE33 and 786-0 cells, qPCR): significant decrease
transcription of control gene HPRT ([1]; OE33 and 786-0 cells, qPCR): not affected
Notch target gene transcription ([1]; insensitive cancer cell lines of the panel, 48 hrs): do not show a statistically significant reduction
Notch target gene transcription ([1]; sensitive cancer cell lines of the panel, 48 hrs, DAPT 10, 1-134-83 15 and 25 μM): significantly reduced
growth of established tumor [2]: stunted growth to a similar level achieved with DAPT treatment
colony formation ([3]; 786-0 and OE33 cells): inhibited the cell colony forming ability of cells
colony formation ([3]; sensitive (Notch dependent) cell lines): decrease in colony formation
occupancy of MAML1 on the HES1 promoter [4]: decreased
occupancy of NOTCH1 on the HES1 promoter [4]: decreased
levels of NICD in cells [5]: decrease in the NICD pool

COc1cccc(/C=C2\SC(=S)N(CC(=O)N(C)C)C2=O)c1O [NADi-203, (Z)-2-(5-(2-Hydroxy-3-methoxybenzylidene)-4-oxo-2-thioxothiazolidin-3-yl)-N,N-dimethylacetamide]
Kd (CSL): 6.4 ± 0.7 µM
Kd (NICD1): 5.7 ± 0.9 µM
IC50 [6]: 0.5 µM

O=C(O)COc1ccccc1/C=C1\SC(=S)NC1=O [NADi-090]
Kd (CSL): 3.4 ± 0.7 µM
Kd (NICD1): 25 ± 4 µM
IC50 [6]: 0.07 µM

C=CCc1cc(/C=C2\SC(=S)NC2=O)cc(OC)c1OCC(=O)O [1-134]
Kd (CSL): 15 ± 3 µM
Kd (NICD1): 17 ± 5 µM
IC50 [6]: 6 µM

COc1cc(/C=C2\SC(=S)NC2=O)ccc1OCC(=O)O [1-134-02]
Kd (CSL): 3.6 ± 0.9 µM
Kd (NICD1): 2.9 ± 0.6 µM
IC50 [6]: 0.5 µM

CN(C)C(=O)CN1C(=O)/C(=C/c2cc(F)ccc2O)SC1=S [NADi-239, (Z)-2-(5-(5-Fluoro-2-hydroxybenzylidene)-4-oxo-2-thioxothiazolidin-3-yl)-N,N-dimethylacetamide]
Kd (CSL): 13 ± 2 µM
Kd (NICD1): 3.7 ± 0.8 µM
IC50 [6]: 0.5 µM
